Test: solvent system method: total amount of ibuprofen released from the LDH
Format: physicochemical
Details: 200 mg dose of ibuprofen; 0.05M HCl 50 mL, 15 min

TOTAL AMOUNT OF IBUPROFEN RELEASED FROM THE LDH AS DETERMINED USING THE SOLVENT METHOD: 95%
Structure (SMILES): CC(C)Cc1ccc(C(C)C(=O)O)cc1 (stereo not shown) [Ibuprofen free acid]
